The values below come from patent US7833991B2, “Amine compound and use thereof” (Kureha Corporation, priority 2002, dated 2010).

Test [1] concerns HIV-1IIIB infected MT-4 cells. Put plainly: Antiviral activity in HIV-1IIIB infected MT-4 cells, MTT method (Test Examples 1 and 5). In kind it is cell-based. Particulars: Human immunodeficiency virus 1, MT4; as in Test Example 1; Table 5; read-out: HIV Activity EC50. As for the experimental part: Immediately after infection, HIV-1IIIB infected MT-4 cells (3.0×10^4/well, MOI (Multiplicity of infection): 0.01) were added to a 96-well microtiter plate together with the test compounds having different concentrations. The cells were cultured in a carbon dioxide incubator at 37° C. for 5 days, and the number of living cells was measured in accordance with the MTT (tetrazolium) method (Pawels, et al., Journal of Virology Method, 20, 309-321 ([…])). The antiviral activity is represented by the concentration required for inhibition of cell disorder due to HIV by 50% (EC50: 50% Effective Concentration) (μM), and the results are shown in Table 2.
(§1) Compounds of the present invention having various substituted and unsubstituted heterocyclic rings for the substituent A2 of formula (1) were tested for antiviral (anti-HIV) activity as in Test Example 1 and for CXCR4 activity as in Test Example 2. The compounds, various substituents of the compounds, antiviral activity represented by the concentration required for inhibition of all disorder due to HIV injection by 50% (EC50: 50% Effective Concentration, μM), and CXCR4 activity calculated as a rate of inhibition of the binding between radioactive ligands and CXCR4 receptors by a test material (a binding-inhibition % at 0.1 μM) are shown in Table 5: […]
(In general: Tetrazolium assays rely on reduction of a dye to a coloured formazan, in cell work by metabolically active cells.)

The target in a further test is T1, CXCR4 (Homo sapiens, UniProt P61073).
T1 construct: endogenous in cells; host or cells: MT-4 cells
Put plainly: Inhibition of 125I-SDF-1α binding to receptors CXCR4 on MT-4 cells (Test Examples 2 and 5). The conditions noted are these: binding-inhibition % at 0.1 μM, as in Test Example 2; Table 5; read-out: CXCR4 Activity % at 0.1 μM. On the procedure: MT-4 cells (5×10^6/0.2 ml/well) were cultured on a 24-well microtiter plate. After the cells were incubated for 24 hours at 37° C. in a carbon dioxide gas incubator, a culture medium was replaced with a buffer solution (0.1% BSA-containing RPMI-1640). Together with a ligand ^125I-SDF-1α, (specific activity: 2,200 Ci/mmol; available from Daiichi Pure Chemicals Co., Ltd. (Tokyo)), test materials with various concentrations were subjected to a binding reaction for 2 hours under ice-cooling. […] Then, a rate of inhibition of the binding between radio-active ligands and receptors CXCR4 by a test material was calculated (a binding-inhibition % at 0.1 μM).
as §1

T1 sequence (P61073 whole entry): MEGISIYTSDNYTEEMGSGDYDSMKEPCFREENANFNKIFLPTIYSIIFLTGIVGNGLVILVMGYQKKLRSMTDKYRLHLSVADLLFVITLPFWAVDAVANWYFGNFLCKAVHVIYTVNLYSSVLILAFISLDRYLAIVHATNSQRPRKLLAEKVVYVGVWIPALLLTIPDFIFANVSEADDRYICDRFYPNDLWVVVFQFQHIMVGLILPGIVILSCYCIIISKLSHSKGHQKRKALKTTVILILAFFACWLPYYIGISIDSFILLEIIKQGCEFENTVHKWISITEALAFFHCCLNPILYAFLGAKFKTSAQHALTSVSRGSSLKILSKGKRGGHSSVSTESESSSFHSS

Broadly, the EC50 is the concentration giving half of the maximal effect. On to `CCCN(CCC)Cc1ccc(NC(=O)c2ccc(CN(Cc3ncc[nH]3)Cc3nccn3CCC)cc2)cc1` [Compound No. 92, N-(4-dipropylaminomethylphenyl)-4-{[(1H-imidazol-2-ylmethyl)-(1-propyl-1H-imidazol-2-ylmethyl)-amino]-methyl}-benzamide], for which the EC50 in test [1] worked out at 48 nM. Regarding `O=C(Nc1ccc(CNC2CCCCC2)cc1)c1ccc(CN(Cc2ncc[nH]2)Cc2ncc[nH]2)cc1` [Compound No. 89, 4-{[bis(1H-imidazol-2-ylmethyl)-amino]-methyl}-N-(4-cyclohexylaminomethylphenyl)-benzamide], in test [1], the EC50 came out at 9 nM. Consider `CCCN(CCC)Cc1ccc(NC(=O)c2ccc(CN(Cc3ncc[nH]3)Cc3ncccc3C)cc2)cc1` [Compound No. 53, N-(4-dipropylaminomethylphenyl)-4-{[(1H-imidazol-2-ylmethyl)-(3-methylpyridin-2-ylmethyl)-amino]-methyl}-benzamide], for which the inhibition at 0.1 µM at CXCR4 worked out at 97.7%. The concentration giving a half-maximal response (EC50) in test [1] is 9 nM. The like results for `CCCN(CCC)Cc1ccc(NC(=O)c2ccc(CN(Cc3ncc[nH]3)Cc3ncc(C)cc3C)cc2)cc1` [Compound No. 101, 4-{[(3,5-dimethyl-pyridin-2-ylmethyl)-(1H-imidazol-2-ylmethyl)-amino]-methyl}-N-(4-dipropylaminomethyl-phenyl)-benzamide] were, in that order, 99.1% and 5 nM.

For `CCCN(CCC)Cc1ccc(NC(=O)c2ccc(CN(Cc3ncc[nH]3)Cc3ncc[nH]3)c3ccccc23)cc1` [Compound No. 36, 4-{[bis(1H-imidazol-2-ylmethyl)-amino]-methyl}-naphtalene-1-carboxylic acid (4-dipropylaminomethylphenyl)-amide], on CXCR4, the inhibition at 0.1 µM turned out to be 89.6%. Also, in test [1], the EC50 turned out to be 501 nM. As to `CCCN(CCC)Cc1ccc(NC(=O)c2ccc(CN(Cc3nccn3C)Cc3nccn3C)cc2)cc1` [Compound No. 41, 4-{[bis(1-methyl-1H-imidazol-2-ylmethyl)-amino]-methyl}-N-(4-dipropylaminomethylphenyl)-benzamide], in test [1], the EC50 worked out at 3 nM.

Turning to `CCCN(CCC)Cc1ccc(NC(=O)c2ccc(CN(Cc3ncc[nH]3)Cc3ncc(C)c(OC)c3C)cc2)cc1` [Compound No. 64, N-(4-dipropylaminomethylphenyl)-4-{[(1H-imidazol-2-ylmethyl)-(4-methoxy-3,5-dimethylpyridin-2-ylmethyl)-amino]-methyl}-benzamide], the inhibition at 0.1 µM on CXCR4 is 100%. In addition, in test [1], the half-maximal effective concentration (EC50) was 18 nM. `CCCN(CCC)Cc1cccc(NC(=O)c2ccc(CN(Cc3ncc[nH]3)Cc3ncc[nH]3)cc2)c1` [Compound No. 33, 4-{[bis(1H-imidazol-2-ylmethyl)-amino]-methyl}-N-(3-dipropylaminomethylphenyl)-benzamide]: at CXCR4, the inhibition at 0.1 µM worked out at 97.8%. The EC50 in test [1] came out at 46 nM. `CCCN(CCC)Cc1ccc(NC(=O)c2ccc(CN(Cc3nc[nH]n3)Cc3nccn3C)cc2)cc1` [Compound No. 123, N-(4-di-n-propylaminomethyl-phenyl)-4-{[(1-methyl-imidazol-2-ylmethyl)-(1H-[1,2,4]-triazol-3-ylmethyl)-amino]-methyl}-benzamide]: in test [1], the EC50 amounted to 68 nM. Regarding `CCCN(CCC)Cc1ccc(NC(=O)c2ccc(CN(Cc3ccc(C)cn3)Cc3ncc[nH]3)cc2)cc1` [Compound No. 56, N-(4-dipropylaminomethylphenyl)-4-{[(1H-imidazol-2-ylmethyl)-(5-methylpyridin-2-ylmethyl)-amino]-methyl}-benzamide], on CXCR4, the inhibition at 0.1 µM was found to be 98.8%. Also, in test [1], the EC50 was determined as 3 nM.

With `CCCN(CCC)Cc1ccc(NC(=O)c2ccc(CN(Cc3ncc[nH]3)Cc3nccn3CC)cc2)cc1` [Compound No. 91, N-(4-dipropylaminomethylphenyl)-4-{[(1-ethyl-1H-imidazol-2-ylmethyl)-(1H-imidazol-2-ylmethyl)-amino]-methyl}-benzamide], the EC50 in test [1] amounted to 15 nM.

On to `CCCN(CCC)Cc1ccc(NC(=O)c2ccc(CN(Cc3ccc(C)cn3)Cc3nccn3C)cc2)cc1` [Compound No. 76, N-(4-dipropylaminomethylphenyl)-4-{[(1-methyl-1H-imidazol-2-ylmethyl)-(5-methylpyridin-2-ylmethyl)-amino]-methyl}-benzamide], for which the EC50 in test [1] came out at 7 nM. Consider `CCCN(CCC)Cc1ccc(NC(=O)c2ccc(CN(Cc3cc4ccccc4cn3)Cc3ncc[nH]3)cc2)cc1` [Compound No. 47, N-(4-dipropylaminomethylphenyl)-4-{[(1H-imidazol-2-ylmethyl)-(isoquinolin-3-ylmethyl)-amino]-methyl}-benzamide], for which the inhibition at 0.1 µM on CXCR4 came out at 98.8%. In test [1], the half-maximal effective concentration (EC50) is 20 nM. The like results for `CCCN(CCC)Cc1ccc(NC(=O)c2ccc(CN(Cc3ccc(CC)cn3)Cc3ncc[nH]3)cc2)cc1` [Compound No. 102, N-(4-dipropylaminomethyl-phenyl)-4-{[(5-ethyl-pyridin-2-ylmethyl)-(1H-imidazol-2-ylmethyl)-amino]-methyl}-benzamide] were, in that order, 98.4% and 3 nM. In the case of `CCCN(CCC)c1ccc(NC(=O)c2ccc(CN(Cc3ncc[nH]3)Cc3ncc[nH]3)cc2)cc1` [Compound No. 15, 4-{[bis(1H-imidazol-2-ylmethyl)-amino]-methyl}-N-(4-dipropylaminophenyl)-benzamide], the inhibition at 0.1 µM at CXCR4 was found to be 46.9%. For `CCCN(CCC)Cc1ccc(NC(=O)c2ccc(CN(Cc3ccccn3)Cc3ncc[nH]3)cc2)cc1` [Compound No. 48, N-(4-dipropylaminomethylphenyl)-4-{[(1H-imidazol-2-ylmethyl)-(pyridin-2-ylmethyl)-amino]-methyl}-benzamide], on CXCR4, the inhibition at 0.1 µM came out at 97.7%. In addition, the 50% effective concentration (EC50) in test [1] was found to be 22 nM.

With `CCCN(CCC)Cc1ccc(NC(=O)c2ccc(CN(Cc3ncc[nH]3)Cc3nccn3CCO)cc2)cc1` [Compound No. 94, N-(4-dipropylaminomethylphenyl)-4-({[1-(2-hydroxyethyl)-1H-imidazol-2-ylmethyl]-(1H-imidazol-2-ylmethyl)-amino}-methyl)-benzamide], the inhibition at 0.1 µM at CXCR4 came to 100%. Moreover, in test [1], the EC50 turned out to be 3 nM.

`Cn1ccnc1CN(Cc1ccc(C(=O)Nc2ccc(CNC3CCCCC3)cc2)cc1)Cc1ncc[nH]1` [Compound No. 88, N-(4-cyclohexylaminomethylphenyl)-4-{[(1H-imidazol-2-ylmethyl)-(1-methyl-1H-imidazol-2-ylmethyl)-amino]-methyl}-benzamide]: the inhibition at 0.1 µM at CXCR4 worked out at 99%. Besides, the EC50 in test [1] stood at 5 nM. For the compound `CCCN(CCC)Cc1ccc(NC(=O)c2ccc(CN(Cc3cc(C)ccn3)Cc3ncc[nH]3)cc2)cc1` [Compound No. 78, N-(4-dipropylaminomethylphenyl)-4-{[N-(1H-imidazol-2-ylmethyl)-(4-methylpyridin-2-ylmethyl)-amino]-methyl}-benzamide], the EC50 in test [1] amounted to 19 nM. `CCCN(CCC)Cc1ccc(NC(=O)c2ccc(CN(Cc3ccncc3)Cc3ncc[nH]3)cc2)cc1` [Compound No. 58, N-(4-dipropylaminomethylphenyl)-4-{[(1H-imidazol-2-ylmethyl)-(pyridin-4-ylmethyl)-amino]-methyl}-benzamide]: the inhibition at 0.1 µM on CXCR4 was determined as 18.6%. In addition, the EC50 in test [1] amounted to 97 nM. The like results for `CCCN(CCC)Cc1ccc(NC(=O)c2ccc(CN(Cc3ncc[nH]3)Cc3ncccc3OCC)cc2)cc1` [Compound No. 59, N-(4-dipropylaminomethylphenyl)-4-{[(1H-imidazol-2-ylmethyl)-(3-ethoxypyridin-2-ylmethyl)-amino]-methyl}-benzamide] were, in that order, 98.2% and 24 nM.

For `CCCN(CCC)Cc1ccc(NC(=O)c2ccc(CN(Cc3nc[nH]n3)Cc3ncc[nH]3)cc2)cc1` [Compound No. 114, N-(4-di-n-propylaminomethyl-phenyl)-4-{[(1H-imidazol-2-ylmethyl)-(1H-[1,2,4]-triazol-3-ylmethyl)-amino]-methyl}-benzamide], at CXCR4, the inhibition at 0.1 µM was determined as 96.4%. In addition, the EC50 in test [1] came out at 89 nM.

`CCCN(CCC)Cc1ccc(NC(=O)c2ccc(CN(Cc3ccc4cccc(O)c4n3)Cc3ncc[nH]3)cc2)cc1` [Compound No. 72, N-(4-dipropylaminomethylphenyl)-4-{[(8-hydroxyquinolin-2-ylmethyl)-(1H-imidazol-2-ylmethyl)-amino]-methyl}-benzamide]: at CXCR4, the inhibition at 0.1 µM is 100%. Besides, in test [1], the concentration giving a half-maximal response (EC50) was found to be 4 nM. The like results for `CCCN(CCC)Cc1ccc(NC(=O)c2ccc(CN(Cc3ccc4ccccc4n3)Cc3ncc[nH]3)cc2)cc1` [Compound No. 55, N-(4-dipropylaminomethylphenyl)-4-{[(1H-imidazol-2-ylmethyl)-(quinolin-2-ylmethyl)-amino]-methyl}-benzamide] were, in that order, 21% and 635 nM.
